Tests used:
Assay type in all cases: functional, cell-based
PC-3 = experiment: Cytotoxicity against human PC3 cells after 48 hrs by MTT assay; conditions: PC-3, 48 h
DU-145 = experiment: Cytotoxicity against human DU145 cells after 48 hrs by MTT assay; conditions: DU-145, 48 h
LNCaP = experiment: Cytotoxicity against human LNCAP cells after 48 hrs by MTT assay
MCF7 = experiment: Cytotoxicity against human MCF7 cells after 48 hrs by MTT assay; conditions: MCF7, 48 h
MDA-MB-231 = experiment: Cytotoxicity against human MDA-MB-231 cells after 48 hrs by MTT assay; conditions: MDA-MB-231, 48 h
MIA PaCa-2 = experiment: Cytotoxicity against human MIAPaCa2 cells after 48 hrs by MTT assay; conditions: MIA PaCa-2, 48 h

COc1ccc(-c2nc(-c3ccc(OC)c(OC4CCCC4)c3)no2)cc1
IC50 (PC-3): 408 µM | IC50 (DU-145): 414 µM | IC50 (LNCaP): 843 µM | IC50 (MCF7): > 1000 µM | IC50 (MDA-MB-231): 77.7 µM | IC50 (MIA PaCa-2): 420 µM

COc1ccc(-c2nc(-c3ccc(OC)c(OC4CCCC4)c3)no2)cc1OC
IC50 (PC-3): 171 µM | IC50 (DU-145): 422 µM | IC50 (LNCaP): 816 µM | IC50 (MCF7): > 1000 µM | IC50 (MDA-MB-231): 236 µM | IC50 (MIA PaCa-2): 404 µM

COc1ccc(-c2nc(-c3cc(OC)c(OC)c(OC)c3)no2)cc1
IC50 (PC-3): 214 µM | IC50 (DU-145): 100 µM | IC50 (LNCaP): 327 µM | IC50 (MCF7): > 1000 µM | IC50 (MDA-MB-231): 768 µM | IC50 (MIA PaCa-2): 43.5 µM

COc1ccc(-c2nc(-c3cc(OC)c(OC)c(OC)c3)no2)cc1OC
IC50 (PC-3): > 1000 µM | IC50 (DU-145): > 1000 µM | IC50 (LNCaP): > 1000 µM | IC50 (MCF7): > 1000 µM | IC50 (MDA-MB-231): 475 µM | IC50 (MIA PaCa-2): > 1000 µM

COc1cc(-c2noc(-c3cc(OC)c(OC)c(OC)c3)n2)cc(OC)c1OC
IC50 (PC-3): 698 µM | IC50 (DU-145): 576 µM | IC50 (LNCaP): 407 µM | IC50 (MCF7): > 1000 µM | IC50 (MDA-MB-231): 261 µM | IC50 (MIA PaCa-2): > 1000 µM

COc1ccc(-c2noc(C3CCNCC3)n2)cc1OC
IC50 (PC-3): 315 µM | IC50 (DU-145): 108 µM | IC50 (LNCaP): 38.8 µM | IC50 (MCF7): 27 µM | IC50 (MDA-MB-231): 122 µM | IC50 (MIA PaCa-2): 147 µM

CCOc1cc(-c2noc(C3CCNCC3)n2)ccc1OC
IC50 (PC-3): 166 µM | IC50 (DU-145): 167 µM | IC50 (LNCaP): 154 µM | IC50 (MCF7): 173 µM | IC50 (MDA-MB-231): 184 µM | IC50 (MIA PaCa-2): 112 µM

CCCCOc1cc(-c2noc(C3CCNCC3)n2)ccc1OC
IC50 (PC-3): 35.8 µM | IC50 (DU-145): 17 µM | IC50 (LNCaP): 32.5 µM | IC50 (MCF7): 15.7 µM | IC50 (MDA-MB-231): 23.8 µM | IC50 (MIA PaCa-2): 18.5 µM

COc1cc(-c2noc(C3CCNCC3)n2)ccc1OC1CCCC1
IC50 (PC-3): 11.7 µM | IC50 (DU-145): 30 µM | IC50 (LNCaP): 42.2 µM | IC50 (MCF7): 29 µM | IC50 (MDA-MB-231): 28.5 µM | IC50 (MIA PaCa-2): 13 µM

COc1cc(-c2noc(C3CCNCC3)n2)cc(OC)c1OC
IC50 (PC-3): 176 µM | IC50 (DU-145): 112 µM | IC50 (LNCaP): 120 µM | IC50 (MCF7): 324 µM | IC50 (MDA-MB-231): 123 µM | IC50 (MIA PaCa-2): 80.1 µM

CCOC(=O)N1CCC(c2nc(-c3ccc(OC)c(OC4CCCC4)c3)no2)CC1
IC50 (PC-3): 80 µM | IC50 (DU-145): 29.3 µM | IC50 (LNCaP): 58.7 µM | IC50 (MCF7): 27 µM | IC50 (MDA-MB-231): 36.8 µM | IC50 (MIA PaCa-2): 24 µM

COc1ccc(-c2noc(C3CCN(S(C)(=O)=O)CC3)n2)cc1OC1CCCC1
IC50 (PC-3): 159 µM | IC50 (DU-145): 134 µM | IC50 (LNCaP): 149 µM | IC50 (MCF7): 113 µM | IC50 (MDA-MB-231): 109 µM | IC50 (MIA PaCa-2): 144 µM

COc1ccc(-c2nnc(C3CCNCC3)o2)cc1OC1CCCC1
IC50 (PC-3): > 1000 µM | IC50 (DU-145): 146 µM | IC50 (LNCaP): 308 µM | IC50 (MCF7): 129 µM | IC50 (MDA-MB-231): 38.3 µM | IC50 (MIA PaCa-2): 331 µM

COc1ccc(-c2nnc(C3CCNCC3)s2)cc1OC1CCCC1
IC50 (PC-3): 12.9 µM | IC50 (DU-145): 19.6 µM | IC50 (LNCaP): 19.2 µM | IC50 (MCF7): 17.6 µM | IC50 (MDA-MB-231): 9.2 µM | IC50 (MIA PaCa-2): 10.2 µM

COc1ccc(-c2noc(C3CCCCC3)n2)cc1OC1CCCC1
IC50 (PC-3): 80.3 µM | IC50 (DU-145): 108 µM | IC50 (LNCaP): 92.6 µM | IC50 (MCF7): 57.3 µM | IC50 (MDA-MB-231): 138 µM | IC50 (MIA PaCa-2): 64.5 µM

COc1ccc(-c2noc(C3CCCC3)n2)cc1OC1CCCC1
IC50 (PC-3): 194 µM | IC50 (DU-145): 106 µM | IC50 (LNCaP): 138 µM | IC50 (MCF7): 62.3 µM | IC50 (MDA-MB-231): 87.5 µM | IC50 (MIA PaCa-2): 99.2 µM

COc1ccc(-c2noc(C3CCN(C(=O)OC(C)(C)C)CC3)n2)cc1OC
IC50 (PC-3): 108 µM | IC50 (DU-145): 158 µM | IC50 (LNCaP): 85.6 µM | IC50 (MCF7): 52.2 µM | IC50 (MDA-MB-231): 129 µM | IC50 (MIA PaCa-2): 32.5 µM

CCOc1cc(-c2noc(C3CCN(C(=O)OC(C)(C)C)CC3)n2)ccc1OC
IC50 (PC-3): 41 µM | IC50 (DU-145): 156 µM | IC50 (LNCaP): 96.1 µM | IC50 (MCF7): 93.8 µM | IC50 (MDA-MB-231): 116 µM | IC50 (MIA PaCa-2): 91.1 µM

CCCCOc1cc(-c2noc(C3CCN(C(=O)OC(C)(C)C)CC3)n2)ccc1OC
IC50 (PC-3): 130 µM | IC50 (DU-145): 102 µM | IC50 (LNCaP): 91 µM | IC50 (MCF7): 91 µM | IC50 (MDA-MB-231): 88 µM | IC50 (MIA PaCa-2): 105 µM

COc1cc(-c2noc(C3CCN(C(=O)OC(C)(C)C)CC3)n2)ccc1OC1CCCC1
IC50 (PC-3): 315 µM | IC50 (DU-145): 98.6 µM | IC50 (LNCaP): 106 µM | IC50 (MCF7): 38 µM | IC50 (MDA-MB-231): 41 µM | IC50 (MIA PaCa-2): 21.5 µM

COc1cc(-c2noc(C3CCN(C(=O)OC(C)(C)C)CC3)n2)cc(OC)c1OC
IC50 (PC-3): 56.9 µM | IC50 (DU-145): 48.4 µM | IC50 (LNCaP): 48.2 µM | IC50 (MCF7): 43.6 µM | IC50 (MDA-MB-231): 13.6 µM | IC50 (MIA PaCa-2): 106 µM

COc1ccc(-c2noc(C3CCN(C(=O)OC(C)(C)C)CC3)n2)cc1OC1CCCC1
IC50 (PC-3): 108 µM | IC50 (DU-145): 120 µM | IC50 (LNCaP): 122 µM | IC50 (MCF7): 60.3 µM | IC50 (MDA-MB-231): 38.3 µM | IC50 (MIA PaCa-2): 23.3 µM

COc1ccc(-c2noc(C(Cl)(Cl)Cl)n2)cc1OC1CCCC1
IC50 (PC-3): 15 µM | IC50 (DU-145): 9.3 µM | IC50 (LNCaP): 17.8 µM | IC50 (MCF7): 47.4 µM | IC50 (MDA-MB-231): 16.1 µM | IC50 (MIA PaCa-2): 14.5 µM
